# Results reported in patent US20110044936A1, “Composition for Attracting Bed Bugs” (priority 2009, published 2011).
# What was measured:
# Type in all cases: in vivo
# [1] = tested on: bed bugs (Cimex lectularius); assay: Test arena gas assay, compounds dissolved in nonane (Example 5); conditions: for % Bed bugs in Experimental Zone: after two hour exposure, released from nonane solution at 150.0-184.8 nanograms/hour @ 100 mL/min air flow, test gas 21-22 °C, control gas compressed air; for Attraction of bed bugs to gaseous mixture: test arena, two hour exposure, versus control gas
# From the text: A test arena was constructed from a 60×40×22 cm (L:W:H) polystyrene container. A 60×40 cm piece of filter paper was glued on the bottom to provide a walking surface for the bed bugs. At one end of the test arena, a triangular piece of plastic (16 cm high×25 cm long) was glued to the middle of the side and bottom of the container to create test zones of equal area on either side of the partition. On each side of this partition a piece of Tygon® tubing was inserted through a hole 7 cm above the bottom of each test zone to deliver a control gas to one side of the partition (control zone) and the experimental gas to the other side of the partition (experimental zone). The tubing was positioned to deliver the gases downward into the test zones with each outlet 6 cm above the filter paper glued to the bottom of the container. At the other end of the test arena, a 4 W night light was placed 35 cm above the bottom of the arena and regulated to a 12 hour light:12 hour dark (7 AM On: 7 PM Off) light cycle. Also placed adjacent to the night light was a small fan (Boston, cat#EHSDF) to create a gentle removal of gases from the distal part of the arena. Air released by the experimental and control gases was contained within their partitions and were gently drawn away from the respective air inputs, mixed within the arena and removed by the fan. This created a laminar flow where the bed bugs had opportunity to select either the experimental or control gas. Fifty bed bugs (Cimex lectularius) were entrapped within an inverted 90 mm Petri dish at a position furthest from the control and experimental zones until bed bugs were quiescent. Removal of the Petri dish started the experiment and readings were taken every hour for two hours. Data collected were number of bed bugs in the experimental, control and free arena zones. In addition, gas temperature, relative humidity, air flow rate, and percent CO2 data were collected. The experimental gas was considered to be an attractant if more bed bugs were in the experimental zone than in the control zone.
# Determination of Bed Bug Aggregation Effect Using Hexenal, Butyric Acid, trans-2-Hexen-1-al Diethylacetal, Trimethylsilyl Butyrate or Methyl Butyrate Dissolved in an Alkane Solvent Using the test arena and methods described in Example 4, test treatments containing about 300 ppm of a pro-aldehyde compound, trans-2-hexen-1-al diethylacetal, dissolved in nonane, about 300 ppm of Hexenal dissolved in nonane, about 200 ppm of butyric acid dissolved in nonane and about 200 ppm of a pro-organic acid compound, trimethylsilyl butyrate or methyl butyrate, dissolved in nonane were prepared. Separate 100 micro liter pipettes (Drummond Wiretrol 100 μL) were filled with the test solutions. One end of each micro liter pipette was sealed with parafilm leaving one end of each open. […] An air tight lid was placed onto the plastic container and the container was installed in-line after humidity and temperature conditioning of the gas and before the gas entered the arena. The micro liter pipettes were weighed before and after use to determine the amount of the test compounds released. The control gas used for these experiments consisted of house compressed air.
# [2] = tested on: bed bugs (Cimex lectularius); assay: Bed bug aggregation (attraction) assay, Petri dish arena with treated and control filter paper tents (Example 1)
# Procedure: Attraction Assays: Assay arenas were made from 150×15 mm plastic Petri dishes (VWR#25384-326) containing a 125 mm piece off qualitative filter paper (VWR#28320-100) glued to the bottom using 3M Super 77® multipurpose spray adhesive. A 80 mm hole was cut into the lid and a 500 um mesh Nytex® screen (Bioquip, #7293B) was glued to cover the opening using quick epoxy. Fresh bottom dishes were used in each assay. For these experiments 2.4 cm filter paper folded to create a tent were treated with either a control treatment (10 microliters of silicone oil for aldehyde controls and 5 microliters of deionized water for acid controls) or 10 microliters of the experimental test treatment diluted in silicone oil (aldehydes) or 5 microliters of the experimental chemical diluted in deionized water (acids). Ten bed bugs per test were released into the assay arena for the aldehyde test treatments and controls, five bed bugs per test were released into the assay arena for the acid test treatments. Day cycling bed bugs (Cimex lectularius), 12 hour light: 12 hour dark (7 AM On: 7 PM Off) light cycle, were incubated and evaluated under normal room lighting conditions at room temperature. Readings were taken at 1 hour intervals from the release of bed bugs for 4 hours for aldehydes and one hour for acids, due to the quick volatility of the acids. The number of bed bugs under the control filter paper disk and the number of bed bugs under the test treatment filter paper disk were recorded. The test treatment was considered to be an attractant if the number of bed bugs under the experimental filter disk was greater than the number under the control filter disk. Table 1 below summarizes the experimental data, the experimental test treatments considered as attractants are in bold.
# [3] = tested on: bed bugs (Cimex lectularius); assay: Bed bug aggregation assay, mixtures of Hexenal and Octenal (Example 2); conditions: about 30 ppm in silicone oil; for Number of bed bugs under experimental (Exp) disk: 5 microliters, ten bed bugs, average of two tests
# Procedure: Attraction Assays: […] For this experiment, mixtures of Hexenal and Octenal were diluted in silicone oil at the following ratios: 100:0; 75:25; 50:50; 25:75; and 0:100. […] Readings were taken hourly for four hours from the release of bed bugs in the assay arena. The number of bed bugs under the control disk and the number of bed bugs under the experimental disk were recorded. The test treatment was considered to be an attractant if the number of bed bugs under the experimental filter disk was greater than the number under the control disk. Table 2 below summarizes the experimental data, the experimental test treatments considered as attractants are in bold.
# [4] = organic acid 10 ppm in deionized water, 5 microliters, one hour, five bed bugs, average of two tests
# [5] = organic acid 50 ppm in deionized water, 5 microliters, one hour, five bed bugs, average of two tests
# [6] = organic acid 100 ppm in deionized water, 5 microliters, one hour, five bed bugs, average of two tests
# [7] = organic acid 1000 ppm in deionized water, 5 microliters, one hour, five bed bugs, average of two tests
# [8] = 1 ppm in silicone oil, 10 microliters, 1 Hour, ten bed bugs, average of two tests
# [9] = 1 ppm in silicone oil, 10 microliters, 2 Hour, ten bed bugs, average of two tests
# [10] = 1 ppm in silicone oil, 10 microliters, 3 Hour, ten bed bugs, average of two tests
# [11] = 1 ppm in silicone oil, 10 microliters, 4 Hour, ten bed bugs, average of two tests
# [12] = 10 ppm in silicone oil, 10 microliters, 1 Hour, ten bed bugs, average of two tests
# [13] = 10 ppm in silicone oil, 10 microliters, 2 Hour, ten bed bugs, average of two tests
# [14] = 10 ppm in silicone oil, 10 microliters, 3 Hour, ten bed bugs, average of two tests
# [15] = 10 ppm in silicone oil, 10 microliters, 4 Hour, ten bed bugs, average of two tests
# [16] = 100 ppm in silicone oil, 10 microliters, 1 Hour, ten bed bugs, average of two tests
# [17] = 100 ppm in silicone oil, 10 microliters, 2 Hour, ten bed bugs, average of two tests
# [18] = 100 ppm in silicone oil, 10 microliters, 3 Hour, ten bed bugs, average of two tests
# [19] = 100 ppm in silicone oil, 10 microliters, 4 Hour, ten bed bugs, average of two tests
# [20] = 1000 ppm in silicone oil, 10 microliters, 1 Hour, ten bed bugs, average of two tests
# [21] = 1000 ppm in silicone oil, 10 microliters, 2 Hour, ten bed bugs, average of two tests
# [22] = 1000 ppm in silicone oil, 10 microliters, 3 Hour, ten bed bugs, average of two tests
# [23] = 1000 ppm in silicone oil, 10 microliters, 4 Hour, ten bed bugs, average of two tests
# [24] = 10000 ppm in silicone oil, 10 microliters, 1 Hour, ten bed bugs, one test
# [25] = 10000 ppm in silicone oil, 10 microliters, 2 Hour, ten bed bugs, one test
# [26] = 10000 ppm in silicone oil, 10 microliters, 3 Hour, ten bed bugs, one test
# [27] = 10000 ppm in silicone oil, 10 microliters, 4 Hour, ten bed bugs, one test
# [28] = at a high concentration of about 10,000 ppm
smiles,measurement,setting,value
CCC/C=C/C(OCC)OCC [trans-2-hexen-1-al diethylacetal],% Bed bugs in Experimental Zone,[1],28.0%
same,Attraction of bed bugs to gaseous mixture,[1],attracted
"CCCCC=O [Valeraldehyde, reference compound]",Number of bed bugs under experimental (Exp) filter paper disk,"[2]; 10 milligrams delivered in 10 microliters methanol solution, one experimental disk versus 6 methanol control disks, 1 Hour, average of two tests",0.1
same,Attractiveness to bed bugs,"[2]; saturated aldehyde, 10 milligrams on disk, one hour",not attractive
"O=CO [Formic acid, reference compound]",Number of bed bugs under experimental (Exp) filter paper disk,[2]; [4],0
same,Number of bed bugs under experimental (Exp) filter paper disk,[2]; [5],1
same,Number of bed bugs under experimental (Exp) filter paper disk,[2]; [6],1
same,Number of bed bugs under experimental (Exp) filter paper disk,[2]; [7],3
"CCC/C=C/C=O [Hexenal, trans-2-hexen-1-al]",Number of bed bugs under experimental (Exp) filter paper disk,[2]; [8],4
same,Number of bed bugs under experimental (Exp) filter paper disk,[2]; [9],6
same,Number of bed bugs under experimental (Exp) filter paper disk,[2]; [10],6.5
same,Number of bed bugs under experimental (Exp) filter paper disk,[2]; [11],6
same,Number of bed bugs under experimental (Exp) filter paper disk,[2]; [12],3
same,Number of bed bugs under experimental (Exp) filter paper disk,[2]; [13],3.5
same,Number of bed bugs under experimental (Exp) filter paper disk,[2]; [14],4
same,Number of bed bugs under experimental (Exp) filter paper disk,[2]; [15],5.5
same,Number of bed bugs under experimental (Exp) filter paper disk,[2]; [16],6.5
same,Number of bed bugs under experimental (Exp) filter paper disk,[2]; [17],8
same,Number of bed bugs under experimental (Exp) filter paper disk,[2]; [18],9
same,Number of bed bugs under experimental (Exp) filter paper disk,[2]; [19],8.5
same,Number of bed bugs under experimental (Exp) filter paper disk,[2]; [20],6
same,Number of bed bugs under experimental (Exp) filter paper disk,[2]; [21],7
same,Number of bed bugs under experimental (Exp) filter paper disk,[2]; [22],9
same,Number of bed bugs under experimental (Exp) filter paper disk,[2]; [23],9
same,Number of bed bugs under experimental (Exp) filter paper disk,[2]; [24],0
same,Number of bed bugs under experimental (Exp) filter paper disk,[2]; [25],1
same,Number of bed bugs under experimental (Exp) filter paper disk,[2]; [26],1
same,Number of bed bugs under experimental (Exp) filter paper disk,[2]; [27],1
same,Attractiveness to bed bugs,[2]; [28],much less attractive
same,Number of bed bugs under experimental (Exp) disk,[3]; 1 Hour,3
same,Number of bed bugs under experimental (Exp) disk,[3]; 2 Hour,3
same,Number of bed bugs under experimental (Exp) disk,[3]; 3 Hour,4.5
same,Number of bed bugs under experimental (Exp) disk,[3]; 4 Hours,5
same,% Bed bugs in Experimental Zone,[1],38.0%
same,Attraction of bed bugs to gaseous mixture,[1],attracted
"CCCC(=O)O[Si](C)(C)C [Trimethylsilyl butyrate, trimethylsilyl butyrate]",% Bed bugs in Experimental Zone,[1],9%
same,Attraction of bed bugs to gaseous mixture,[1],attracted
"CCCCC/C=C/C=O [Octenal, trans-2-octen-1-al]",Number of bed bugs under experimental (Exp) filter paper disk,[2]; [8],1
same,Number of bed bugs under experimental (Exp) filter paper disk,[2]; [9],2
same,Number of bed bugs under experimental (Exp) filter paper disk,[2]; [10],3.5
same,Number of bed bugs under experimental (Exp) filter paper disk,[2]; [11],5
same,Number of bed bugs under experimental (Exp) filter paper disk,[2]; [12],2
same,Number of bed bugs under experimental (Exp) filter paper disk,[2]; [13],4
same,Number of bed bugs under experimental (Exp) filter paper disk,[2]; [14],4.5
same,Number of bed bugs under experimental (Exp) filter paper disk,[2]; [15],4
same,Number of bed bugs under experimental (Exp) filter paper disk,[2]; [16],5
same,Number of bed bugs under experimental (Exp) filter paper disk,[2]; [17],6.5
same,Number of bed bugs under experimental (Exp) filter paper disk,[2]; [18],7
same,Number of bed bugs under experimental (Exp) filter paper disk,[2]; [19],6.5
same,Number of bed bugs under experimental (Exp) filter paper disk,[2]; [20],5
same,Number of bed bugs under experimental (Exp) filter paper disk,[2]; [21],4.5
same,Number of bed bugs under experimental (Exp) filter paper disk,[2]; [22],5
same,Number of bed bugs under experimental (Exp) filter paper disk,[2]; [23],5
same,Number of bed bugs under experimental (Exp) filter paper disk,[2]; [24],2
same,Number of bed bugs under experimental (Exp) filter paper disk,[2]; [25],2
same,Number of bed bugs under experimental (Exp) filter paper disk,[2]; [26],2
same,Number of bed bugs under experimental (Exp) filter paper disk,[2]; [27],4
same,Attractiveness to bed bugs,[2]; [28],much less attractive
same,Attractiveness to bed bugs,[2]; at concentrations below about 100 ppm,less attractive
same,Number of bed bugs under experimental (Exp) disk,[3]; 1 Hour,7.5
same,Number of bed bugs under experimental (Exp) disk,[3]; 2 Hour,7.5
same,Number of bed bugs under experimental (Exp) disk,[3]; 3 Hour,9
same,Number of bed bugs under experimental (Exp) disk,[3]; 4 Hours,8.5
same,Attraction of bed bugs to experimental filter disks,[3]; compared among H:O ratios,most bed bugs were attracted
"CC(=O)O [Acetic acid, reference compound]",Number of bed bugs under experimental (Exp) filter paper disk,[2]; [4],0
same,Number of bed bugs under experimental (Exp) filter paper disk,[2]; [5],1
same,Number of bed bugs under experimental (Exp) filter paper disk,[2]; [6],1
same,Number of bed bugs under experimental (Exp) filter paper disk,[2]; [7],3
same,Number of bed bugs under experimental (Exp) filter paper disk,"[2]; organic acid 10000 ppm in deionized water, 5 microliters, one hour, five bed bugs, average of two tests",3
CCCC(=O)OC [methyl butyrate],% Bed bugs in Experimental Zone,[1],34.0%
same,Attraction of bed bugs to gaseous mixture,[1],attracted
